pEC50: −log10 of the molar value.
Columns and labels:
[1] = Pharmacokinetics in plasma following PO cassette dosing in mice; type: in vivo; conditions: mouse, Balb/C female mice, 5 mg/kg; for AUC: blood collection 30 min, 2 h, 4 h
Protocol: Adult Balb/C female mice (6-7 weeks, Vitalriver) were received to cassette dosing of the test compounds with 10-20% DMSO, 10% Solutol (Kolliphor HS 15, Beijing Fengli Jingqiu Pharmaceutical Co., Ltd.) and 80-70% H2O as excipients. The mice (n=3) were giving oral administration (intragastric administration) at a dose of 5 mg/kg. Time of blood collection: 30 min, 2 h, 4 h. About 0.1 mL of whole blood was collected from retro-orbital venous plexus, and placed into tubes that contained EDTA as an anticoagulant. The samples were centrifuged at 4° C. and 4000 rpm for 10 min. The plasma was transferred into centrifuge tubes, and stored at −20° C. before being analyzed. Concentrations of test compounds in the plasma samples were analyzed with liquid chromatography-tandem mass spectrometry (LC-MS/MS). Plasma concentration-time data of individual animals was analyzed using Microsoft Excel 2010. Non-compartmental model was introduced in concentration analysis. The pharmacokinetic parameters of the test compounds were calculated using WinNonlin (version 4.1; Pharsight) software.

TEAD-YAP/TAZ interaction = test: CTGF ELISA assay; type: cell-based, human; conditions: CTGF in culture supernatant of NCI-H2052 cells, 24 hours with compound
How it was run: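 NCI-H2052 cells treated 24 h at 37 °C with compound (10000–0.61 nM, 0.5% DMSO); secreted CTGF in supernatant measured by sandwich ELISA (OD 450 nm) against a standard curve. EC50 fitted from CTGF concentration-response curves.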

| Compound | Cmax [1] [ng/mL] | AUC [1] [ng·h/mL] | pEC50 (TEAD-YAP/TAZ interaction) |
| --- | --- | --- | --- |
| C=CC(=O)N1CCC(n2nc(-c3ccc(C(F)(F)F)cc3)c3cccnc32)C1 (stereo not shown) [Compound 21, 1-(3-(3-(4-(trifluoromethyl)phen-yl)-1H-pyrazolo[3,4-b]pyridin-1-yl)pyrrolidin-1-yl)prop-2-en-1-one] | 1060 | 3150 | 7.96 |
| C=CC(=O)N1CCC(n2nc(-c3ccc(C(F)(F)F)cc3)c3ncccc32)C1 (stereo not shown) [Compound 26, 1-(3-(3-(4-(trifluoromethyl)phen-yl)-1H-pyrazolo[4,3-b]pyridin-1-yl)pyrrolidin-1-yl)prop-2-en-1-one] | 1420 | 4640 | 8.44 |
| C=CC(=O)N1CCC(n2nc(-c3ccc(C(F)(F)F)cc3)c3ccc(C)cc32)C1 (stereo not shown) [Compound 47, 1-(3-(6-methyl-3-(4-(trifluoro-methyl)phenyl)-1H-indazol-1-yl)-pyrrolidin-1-yl)prop-2-en-1-one] | 721 | 2510 | 7.82 |
| C=CC(=O)N1CCC(n2nc(-c3ccc(C(F)(F)F)cn3)c3ccccc32)C1 (stereo not shown) [Compound 58, 1-(3-(3-(5-(trifluoromethyl)pyr-idin-2-yl)-1H-indazol-1-yl)pyrrol-idin-1-yl)prop-2-en-1-one] | 1580 | 4470 | 7.77 |
| C=CC(=O)N1CCC(n2nc(-c3ccc(C(F)(F)F)cc3)c3nc(OC)ccc32)C1 (stereo not shown) [Compound 89, 1-(3-(5-methoxy-3-(4-(trifluoro-methyl)phenyl)-1H-pyrazolo[4,3-b]pyridin-1-yl)pyrrolidin-1-yl)-prop-2-en-1-one] | 1970 | 6480 | 7.92 |
| C=CC(=O)N1CCC(n2nc(-c3ccc(C(F)(F)F)nc3)c3cccc(C(=O)NC4CC(F)(F)C4)c32)C1 (stereo not shown) [Compound 104, 1-(1-acryloylpyrrolidin-3-yl)-N-(3,3-difluorocyclobutyl)-3-(6-(trifluoromethyl)pyridin-3-yl)-1H-indazole-7-carboxamide] | 1520 | 5060 | 7.85 |
| C=CC(=O)N1CCC(n2nc(-c3ccc(C(F)(F)F)cc3)c3cc(Cl)cnc32)C1 (stereo not shown) [Compound 108, 1-(3-(5-chloro-3-(4-(trifluoro-methyl)phenyl)-1H-pyrazolo[3,4-b]pyridin-1-yl)pyrrolidin-1-yl)-prop-2-en-1-one] | 1200 | 3500 | 7.92 |
| C=C(F)C(=O)N1CC(n2nc(-c3ccc(C(F)(F)F)cc3F)c3cccnc32)C1 [Compound 128, 2-fluoro-1-(3-(3-(2-fluoro-4-(trifluoromethyl)phenyl)-1H-pyrazolo[3,4-b]pyridin-1-yl)-azetidin-1-yl)prop-2-en-1-one] | 5270 | 19300 | 8.05 |
| C=C(F)C(=O)N1CC(n2nc(-c3ccc(C(F)(F)F)cc3F)c3ncccc32)C1 [Compound 130, 2-fluoro-1-(3-(3-(2-fluoro-4-(trifluoromethyl)phenyl)-1H-pyrazolo[4,3-b]pyridin-1-yl)-azetidin-1-yl)prop-2-en-1-one] | 1960 | 7110 | 8.40 |
| C=C(F)C(=O)N1CC(n2nc(-c3ccc(OC(F)(F)F)cc3)c3cccnc32)C1 [Compound 172, 2-fluoro-1-(3-(3-(4-(trifluoro-methoxy)phenyl)-1H-pyrazolo-[3,4-b]pyridin-1-yl)azetidin-1-yl)prop-2-en-1-one] | 1650 | 1650 | 9.40 |
| C=C(F)C(=O)N1CC(n2nc(-c3ccc(S(F)(F)(F)(F)F)cc3)c3cccnc32)C1 [Compound 173, 2-fluoro-1-(3-(3-(4-(pentafluoro-16-sulfanyl)phenyl)-1H-pyrazolo-[3,4-b]pyridin-1-yl)azetidin-1-yl)prop-2-en-1-one] | 1670 | 5960 | 7.32 |
| C=C(F)C(=O)N1CC(n2nc(-c3ccc(C(F)(F)F)nc3C)c3cccnc32)C1 [Compound 182, 2-fluoro-1-(3-(3-(2-methyl-6-(trifluoromethyl)pyridin-3-yl)-1H-pyrazolo[3,4-b]pyridin-1-yl)azetidin-1-yl)prop-2-en-1-one] | 2160 | 7410 | 9.41 |

Second part, the compound after the results:

| Cmax [1] [ng/mL] | AUC [1] [ng·h/mL] | pEC50 (TEAD-YAP/TAZ interaction) | Compound |
| --- | --- | --- | --- |
| 3680 | 12800 |  | C=C(F)C(=O)N1CC(n2nc(-c3cnc(C(F)(F)F)nc3)c3cccnc32)C1 [Compound 183, 2-fluoro-1-(3-(3-(2-(trifluorometh-yl)pyrimidin-5-yl)-1H-pyrazolo-[3,4-b]pyridin-1-yl)azetidin-1-yl)-prop-2-en-1-one] |
| 1190 | 3780 | 9.15 | C=C(F)C(=O)N1CC(n2nc(-c3ccc(C(F)(F)F)cc3)c3ncn(CC)c(=O)c32)C1 [Compound 218, 6-ethyl-1-(1-(2-fluoroacryloyl)-azetidin-3-yl)-3-(4-(trifluoro-methyl)phenyl)-1,6-dihydro-7H-pyrazolo[4,3-d]pyrimidin-7-one] |
| 1040 | 3840 | 7.70 | C=C(F)C(=O)N1CC(n2c(=O)n(-c3ccc(C(F)(F)F)cc3)c3ccccc32)C1 [Compound 229, 1-(1-(2 fluoroacryloyl)azetidin-3 yl)-3-(4-(trifluoromethyl)phenyl)-1,3-dihydro-2H-benzo[d]imidazol-2-one] |
| 1600 | 5880 | 8.89 | C=C(F)C(=O)N1CC(n2c(=O)n(-c3ccc(C(F)(F)F)cc3)c3nccnc32)C1 [Compound 240, 1-(1-(2-fluoroacryloyl)azetidin-3-yl)-3-(4-(trifluoromethyl)phenyl)-1,3-dihydro-2H-imidazo[4,5-b]pyrazin-2-one] |
| 2530 | 8260 |  | C=C(F)C(=O)N1CC(n2c(=O)n(-c3ccc(C(F)(F)F)nc3)c3nccnc32)C1 [Compound 241, 1-(1-(2-fluoroacryloyl)azetidin-3-yl)-3-(6-(trifluoromethyl)pyridin-3-yl)-1,3-dihydro-2H-imidazo[4,5-b]pyrazin-2-one] |
| 1770 | 5410 | 8.00 | C=C(F)C(=O)N1CC(n2c(=O)n(-c3ccc(C(F)(F)F)cc3)c3ccc(C)nc32)C1 [Compound 242, 3-(1-(2-fluoroacryloyl)azetidin-3-yl)-5-methyl-1-(4-(trifluoromethyl)phenyl)-1,3-dihydro-2H-imidazo[4,5-b]pyridin-2-one] |
|  |  | 7.49 | C=C(F)C(=O)N1CC(n2c(=O)n(-c3ccc(C(F)(F)F)cc3)c3cc(C(F)(F)F)cnc32)C1 [Compound 245, 3-(1-(2-fluoroacryloyl)azetidin-3-yl)-6-(trifluoromethyl)-1-(4-(trifluoromethyl)phenyl)-1,3-dihydro-2H-imidazo[4,5-b]pyridin-2-one] |
|  |  | 8.01 | C=C(F)C(=O)N1CC(n2c(=O)n(-c3ccc(C(F)(F)F)cc3)c3ccc(Cl)nc32)C1 [Compound 252, 5-chloro-3-(1-(2-fluoroacryloyl)azetidin-3-yl)-1-(4-(trifluoromethyl)phenyl)-1,3-dihydro-2H-imidazo[4,5-b]pyridin-2-one] |
|  |  | 7.36 | C=C(F)C(=O)N1CC(Nc2nc(-c3ccc(C(F)(F)F)cc3)nc3ccccc23)C1 [Compound 255, 2 fluoro-1-(3-((2-(4-(trifluoromethyl)phenyl)quinazolin-4 yl)amino)azetidin-1 yl)prop-2-en-1-one] |
|  |  | 9.15 | C=C(F)C(=O)N1CC(c2nc(-c3ccc(C(F)(F)F)cc3)nc3ccccc23)C1 [Compound 256, 2 fluoro-1-(3-(2-(4-(trifluoromethyl)phenyl)quinazolin-4 yl)azetidin-1 yl)prop-2-en-1-one] |
| 1690 | 6100 |  | C=CC(=O)NC1CN(c2nc(-c3ccc(C(F)(F)F)cc3)nc3ccccc23)C1 [compound 268, N-(1-(2-(4-(trifluoromethyl)phenyl)quinazolin-4-yl)azetidin-3-yl)acrylamide] |
| 1250 | 4370 |  | C=C(F)C(=O)NC1CN(c2nc(-c3ccc(C(F)(F)F)cc3)nc3ccccc23)C1 [compound 269, 2-fluoro-N-(1-(2-(4-(trifluoromethyl)phenyl)quinazolin-4-yl)azetidin-3-yl)acrylamide] |
| 1190 | 4200 |  | C=CC(=O)NC1CN(c2nc(-c3ccc(C(F)(F)F)cc3)nc3cccnc23)C1 [compound 281, N-(1-(2-(4-(trifluoromethyl)phenyl)pyrido[3,2-d]pyrimidin-4-yl)azetidin-3-yl)acrylamide] |
| 2710 | 8480 |  | C=C(F)C(=O)N1CC(n2nc(C#Cc3ccccc3)c3cccnc32)C1 [compound 307] |
| 2610 | 9110 |  | C=C(F)C(=O)N1CC(n2nc(/C=C/c3ccccc3)c3cccnc32)C1 [compound 308] |
| 2080 | 5790 |  | C=C(F)C(=O)N1CC(n2nc(C#CC3CCCC3)c3cccnc32)C1 [compound 312, 1-(3-(3-(cyclopentylethynyl)-1H-pyrazolo[3,4-b]pyridin-1-yl)azetidin-1-yl)-2-fluoroprop-2-en-1-one] |
| 1760 | 5730 |  | C=C(F)C(=O)N1CC(n2nc(/C=C/C3CCCCC3)c3cccnc32)C1 [compound 331, (E)-1-(3-(3-(2-cyclohexylvinyl)-1H-pyrazolo[3,4-b]pyridin-1-yl)azetidin-1-yl)-2-fluoroprop-2-en-1-one] |
